Measurements: the supplement of paper PMC10307832

What was measured:
Assay in all cases: relative viability (nuclei count vs DMSO), 5 days (fraction); higher = more cells survive
NCI-H1355 = system: NCI-H1355
In short: (§1)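 The day after seeding in 1536-well plates, lung cancer cell lines were treated by pin tool with a single drug, or with a fixed anchor-drug dose together with five library-drug doses (not always all listed) in √10 steps. After 5 days, a combined fix-and-stain solution (final 0.05% Triton X-100, 1% formaldehyde, 1 ug/ml Hoechst) was added. Nuclei counted on 4× images gave relative viability as treated counts over vehicle counts, reported as the median of duplicate plates.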

NCI-H2342 = system: NCI-H2342
In short: as §1

H3255 = system: H3255
In short: as §1

NCI-H1975 = system: NCI-H1975
In short: as §1

EPLC-272H = system: EPLC-272H
In short: as §1

NCI-H322M = system: NCI-H322M
In short: as §1

NCI-H460 = system: NCI-H460
In short: as §1

NCI-H2087 = system: NCI-H2087
In short: as §1

EKVX = system: EKVX
In short: as §1

HCC-366 = system: HCC-366
In short: as §1

NCI-H2009 = system: NCI-H2009
In short: as §1

SK-MES-1 = system: SK-MES-1
In short: as §1

NCI-H1792 = system: NCI-H1792
In short: as §1

COR-L 105 = system: COR-L 105
In short: as §1

HCC-827 = system: HCC-827
In short: as §1

NCI-H441 = system: NCI-H441
In short: as §1

NCI-H2085 = system: NCI-H2085
In short: as §1

ABC-1 = system: ABC-1
In short: as §1

NCI-H1993 = system: NCI-H1993
In short: as §1

ChaGo-K-1 = system: ChaGo-K-1
In short: as §1

Compound: CCNC(=O)c1noc(-c2cc(C(C)C)c(O)cc2O)c1-c1ccc(CN2CCOCC2)cc1 [Luminespib] + Nc1ncn([C@H]2C[C@H](O)[C@@H](CO)O2)c(=O)n1 [Decitabine] (partner 2 µM)
- relative viability (NCI-H1355; first compound 0.002 µM): 0.359
- relative viability (NCI-H1355; first compound 0.006325 µM): 0.354
- relative viability (NCI-H1355; first compound 0.02 µM): 0.334
- relative viability (NCI-H1355; first compound 0.06325 µM): 0.346
- relative viability (NCI-H1355; first compound 0.2 µM): 0.243
- relative viability (NCI-H2342; first compound 0.002 µM): 0.648
- relative viability (NCI-H2342; first compound 0.006325 µM): 0.82
- relative viability (NCI-H2342; first compound 0.02 µM): 0.546
- relative viability (NCI-H2342; first compound 0.06325 µM): 0.821
- relative viability (NCI-H2342; first compound 0.2 µM): 0.503
- relative viability (H3255; first compound 0.002 µM): 0.639
- relative viability (H3255; first compound 0.02 µM): 0.446
- relative viability (H3255; first compound 0.06325 µM): 0.425
- relative viability (H3255; first compound 0.2 µM): 0.222
- relative viability (NCI-H1975; first compound 0.002 µM): 0.393
- relative viability (NCI-H1975; first compound 0.006325 µM): 0.346
- relative viability (NCI-H1975; first compound 0.02 µM): 0.355
- relative viability (NCI-H1975; first compound 0.06325 µM): 0.127
- relative viability (NCI-H1975; first compound 0.2 µM): 0.144
- relative viability (EPLC-272H; first compound 0.002 µM): 0.393
- relative viability (EPLC-272H; first compound 0.006325 µM): 0.337
- relative viability (EPLC-272H; first compound 0.02 µM): 0.311
- relative viability (EPLC-272H; first compound 0.06325 µM): 0.282
- relative viability (EPLC-272H; first compound 0.2 µM): 0.106
- relative viability (NCI-H322M; first compound 0.002 µM): 0.681
- relative viability (NCI-H322M; first compound 0.006325 µM): 0.624
- relative viability (NCI-H322M; first compound 0.02 µM): 0.711
- relative viability (NCI-H322M; first compound 0.06325 µM): 0.509
- relative viability (NCI-H322M; first compound 0.2 µM): 0.499
- relative viability (NCI-H460; first compound 0.002 µM): 0.473
- relative viability (NCI-H460; first compound 0.006325 µM): 0.432
- relative viability (NCI-H460; first compound 0.02 µM): 0.0674
- relative viability (NCI-H460; first compound 0.06325 µM): 0.0264
- relative viability (NCI-H460; first compound 0.2 µM): 0.0329
- relative viability (NCI-H2087; first compound 0.002 µM): 0.25
- relative viability (NCI-H2087; first compound 0.006325 µM): 0.235
- relative viability (NCI-H2087; first compound 0.02 µM): 0.189
- relative viability (NCI-H2087; first compound 0.06325 µM): 0.145
- relative viability (NCI-H2087; first compound 0.2 µM): 0.101
- relative viability (EKVX; first compound 0.002 µM): 0.38
- relative viability (EKVX; first compound 0.006325 µM): 0.31
- relative viability (EKVX; first compound 0.02 µM): 0.273
- relative viability (EKVX; first compound 0.06325 µM): 0.253
- relative viability (EKVX; first compound 0.2 µM): 0.173
- relative viability (HCC-366; first compound 0.002 µM): 0.327
- relative viability (HCC-366; first compound 0.006325 µM): 0.359
- relative viability (HCC-366; first compound 0.02 µM): 0.31
- relative viability (HCC-366; first compound 0.06325 µM): 0.0527
- relative viability (HCC-366; first compound 0.2 µM): 0.038
- relative viability (NCI-H2009; first compound 0.002 µM): 0.405
- relative viability (NCI-H2009; first compound 0.006325 µM): 0.364
- relative viability (NCI-H2009; first compound 0.02 µM): 0.368
- relative viability (NCI-H2009; first compound 0.06325 µM): 0.187
- relative viability (NCI-H2009; first compound 0.2 µM): 0.135
- relative viability (SK-MES-1; first compound 0.002 µM): 0.392
- relative viability (SK-MES-1; first compound 0.006325 µM): 0.385
- relative viability (SK-MES-1; first compound 0.02 µM): 0.213
- relative viability (SK-MES-1; first compound 0.06325 µM): 0.146
- relative viability (SK-MES-1; first compound 0.2 µM): 0.147
- relative viability (NCI-H1792; first compound 0.002 µM): 0.521
- relative viability (NCI-H1792; first compound 0.006325 µM): 0.458
- relative viability (NCI-H1792; first compound 0.02 µM): 0.429
- relative viability (NCI-H1792; first compound 0.06325 µM): 0.078
- relative viability (NCI-H1792; first compound 0.2 µM): 0.0722
- relative viability (COR-L 105; first compound 0.002 µM): 0.674
- relative viability (COR-L 105; first compound 0.006325 µM): 0.654
- relative viability (COR-L 105; first compound 0.02 µM): 0.567
- relative viability (COR-L 105; first compound 0.06325 µM): 0.234
- relative viability (COR-L 105; first compound 0.2 µM): 0.334
- relative viability (HCC-827; first compound 0.002 µM): 0.36
- relative viability (HCC-827; first compound 0.006325 µM): 0.333
- relative viability (HCC-827; first compound 0.02 µM): 0.285
- relative viability (HCC-827; first compound 0.06325 µM): 0.166
- relative viability (HCC-827; first compound 0.2 µM): 0.147
- relative viability (NCI-H441; first compound 0.002 µM): 0.255
- relative viability (NCI-H441; first compound 0.006325 µM): 0.26
- relative viability (NCI-H441; first compound 0.02 µM): 0.184
- relative viability (NCI-H441; first compound 0.06325 µM): 0.155
- relative viability (NCI-H441; first compound 0.2 µM): 0.134
- relative viability (NCI-H2085; first compound 0.002 µM): 0.547
- relative viability (NCI-H2085; first compound 0.006325 µM): 0.577
- relative viability (NCI-H2085; first compound 0.02 µM): 0.519
- relative viability (NCI-H2085; first compound 0.06325 µM): 0.486
- relative viability (NCI-H2085; first compound 0.2 µM): 0.346
- relative viability (ABC-1; first compound 0.002 µM): 1.19
- relative viability (ABC-1; first compound 0.006325 µM): 1.18
- relative viability (ABC-1; first compound 0.02 µM): 1.16
- relative viability (ABC-1; first compound 0.06325 µM): 0.755
- relative viability (ABC-1; first compound 0.2 µM): 0.344
- relative viability (NCI-H1993; first compound 0.002 µM): 0.596
- relative viability (NCI-H1993; first compound 0.006325 µM): 0.579
- relative viability (NCI-H1993; first compound 0.02 µM): 0.48
- relative viability (NCI-H1993; first compound 0.06325 µM): 0.573
- relative viability (NCI-H1993; first compound 0.2 µM): 0.371
- relative viability (ChaGo-K-1; first compound 0.002 µM): 0.544
- relative viability (ChaGo-K-1; first compound 0.006325 µM): 0.492
- relative viability (ChaGo-K-1; first compound 0.02 µM): 0.528
- relative viability (ChaGo-K-1; first compound 0.06325 µM): 0.522
- relative viability (ChaGo-K-1; first compound 0.2 µM): 0.535
